According to patent US20180021360A1, “Combination Therapy Regimen For Treatment Of Selected HCV Genotypes” (JANSSEN PHARMACEUTICALS, INC., priority 2016, published 2018):

Columns and labels:
P-gp = P-gp (Homo sapiens, UniProt P08183); conditions: cited from earlier work
MRP2 = MRP2 (Homo sapiens, UniProt Q92887); conditions: cited from earlier work
OATP1B1 = target: T1, OATP1B1 (Homo sapiens, UniProt Q9Y6L6); conditions: cited from earlier work
T1 sequence (Q9Y6L6 1-691): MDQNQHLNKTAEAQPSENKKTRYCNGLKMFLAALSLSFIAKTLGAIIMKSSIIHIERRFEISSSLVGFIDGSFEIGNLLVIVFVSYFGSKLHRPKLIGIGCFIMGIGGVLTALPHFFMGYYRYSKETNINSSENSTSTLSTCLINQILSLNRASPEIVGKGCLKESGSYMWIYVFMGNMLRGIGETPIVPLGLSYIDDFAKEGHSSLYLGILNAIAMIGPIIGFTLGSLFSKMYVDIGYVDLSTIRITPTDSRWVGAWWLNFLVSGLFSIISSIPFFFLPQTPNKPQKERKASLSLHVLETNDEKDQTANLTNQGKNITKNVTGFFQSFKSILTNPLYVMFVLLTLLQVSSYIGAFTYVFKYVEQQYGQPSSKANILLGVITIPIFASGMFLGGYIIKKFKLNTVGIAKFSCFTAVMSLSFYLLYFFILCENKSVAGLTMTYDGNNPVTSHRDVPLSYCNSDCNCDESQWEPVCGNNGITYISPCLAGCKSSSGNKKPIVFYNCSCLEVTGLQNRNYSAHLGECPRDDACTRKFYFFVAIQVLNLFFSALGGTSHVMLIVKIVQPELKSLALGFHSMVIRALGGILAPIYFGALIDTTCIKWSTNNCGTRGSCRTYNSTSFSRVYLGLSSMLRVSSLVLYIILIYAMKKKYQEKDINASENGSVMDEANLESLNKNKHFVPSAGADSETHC

MRP3 = MRP3 (Homo sapiens, UniProt O15438); conditions: cited from earlier work
[1] = Phase 2a open-label combination study, pharmacokinetics; type: in vivo, human
Procedure: A randomized, Phase 2a, open-label study was carried out to evaluate the safety, pharmacokinetics and efficacy of the combination of Compound (III), Odalasvir and Simeprevir in Genotype 1 treatment-naïve subjects with chronic hepatitis C. Other treatment-naïve subjects included Genotype 2, 3, 4, 5 and 6.
The aim of the study was to determine the efficacy, pharmacokinetics (PK), and safety of Compound (II)+Odalasvir±SMV in HCV-infected subjects.
This was an open-label study evaluating various dosing regimens of Compound (III)+Odalasvir±SMV for 6-8 weeks in treatment-nave HCV-infected subjects with varying clinical characteristics (e.g., GT 1 or 3, presence/absence of compensated Child Pugh A cirrhosis). Efficacy, PK and safety evaluations were conducted during and through 24 weeks post dosing. Up to 15 cohorts were enrolled; data was generated from cohorts that have completed dosing.

[2] = Phase-1 drug-drug interaction study of Odalasvir, Simeprevir and Compound (III) in healthy volunteers; type: in vivo, human
Text: The following daily doses were employed:

HCV genotype 3 = assay: activity against genotype 3 in vitro; set-up: species or system hepatitis C virus

Sequence of MRP2 (Q92887 whole entry): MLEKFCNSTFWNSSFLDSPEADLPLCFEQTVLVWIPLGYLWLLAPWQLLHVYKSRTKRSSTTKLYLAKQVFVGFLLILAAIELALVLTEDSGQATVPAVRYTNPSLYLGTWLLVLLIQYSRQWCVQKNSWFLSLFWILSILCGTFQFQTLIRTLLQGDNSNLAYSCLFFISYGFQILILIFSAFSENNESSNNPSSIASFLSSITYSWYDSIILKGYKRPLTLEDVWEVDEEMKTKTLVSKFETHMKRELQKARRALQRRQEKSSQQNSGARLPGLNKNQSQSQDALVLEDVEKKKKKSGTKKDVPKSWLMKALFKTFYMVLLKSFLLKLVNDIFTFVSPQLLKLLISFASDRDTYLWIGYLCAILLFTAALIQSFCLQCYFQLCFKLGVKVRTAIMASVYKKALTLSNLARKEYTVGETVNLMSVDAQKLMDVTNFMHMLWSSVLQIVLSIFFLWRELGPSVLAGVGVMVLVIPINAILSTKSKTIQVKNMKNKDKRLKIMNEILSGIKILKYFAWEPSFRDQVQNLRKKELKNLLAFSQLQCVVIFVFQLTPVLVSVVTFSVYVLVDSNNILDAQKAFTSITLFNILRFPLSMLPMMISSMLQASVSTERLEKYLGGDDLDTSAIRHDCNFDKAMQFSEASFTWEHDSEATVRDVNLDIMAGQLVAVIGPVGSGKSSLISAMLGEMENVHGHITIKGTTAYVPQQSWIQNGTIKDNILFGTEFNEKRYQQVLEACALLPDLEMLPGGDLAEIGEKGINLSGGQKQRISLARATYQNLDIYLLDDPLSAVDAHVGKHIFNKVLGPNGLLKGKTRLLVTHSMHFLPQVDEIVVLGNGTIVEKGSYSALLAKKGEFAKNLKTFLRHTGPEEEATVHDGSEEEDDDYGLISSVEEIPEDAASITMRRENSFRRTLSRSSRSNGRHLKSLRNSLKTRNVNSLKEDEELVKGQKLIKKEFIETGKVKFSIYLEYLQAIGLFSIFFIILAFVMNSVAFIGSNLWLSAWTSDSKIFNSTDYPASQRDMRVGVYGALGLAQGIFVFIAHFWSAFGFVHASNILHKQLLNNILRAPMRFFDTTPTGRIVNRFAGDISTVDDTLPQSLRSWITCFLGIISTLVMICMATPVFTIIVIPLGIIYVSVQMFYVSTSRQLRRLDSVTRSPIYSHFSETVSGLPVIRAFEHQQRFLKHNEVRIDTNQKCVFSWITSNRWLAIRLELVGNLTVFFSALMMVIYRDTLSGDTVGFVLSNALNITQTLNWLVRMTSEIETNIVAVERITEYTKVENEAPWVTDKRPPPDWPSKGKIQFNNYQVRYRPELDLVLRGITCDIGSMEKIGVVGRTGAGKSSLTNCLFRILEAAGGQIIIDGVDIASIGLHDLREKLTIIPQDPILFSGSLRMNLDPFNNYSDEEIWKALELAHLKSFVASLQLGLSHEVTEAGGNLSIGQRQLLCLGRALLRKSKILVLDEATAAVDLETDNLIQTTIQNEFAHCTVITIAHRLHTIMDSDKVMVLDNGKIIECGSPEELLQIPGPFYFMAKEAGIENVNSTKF
Sequence of P-gp (P08183 whole entry): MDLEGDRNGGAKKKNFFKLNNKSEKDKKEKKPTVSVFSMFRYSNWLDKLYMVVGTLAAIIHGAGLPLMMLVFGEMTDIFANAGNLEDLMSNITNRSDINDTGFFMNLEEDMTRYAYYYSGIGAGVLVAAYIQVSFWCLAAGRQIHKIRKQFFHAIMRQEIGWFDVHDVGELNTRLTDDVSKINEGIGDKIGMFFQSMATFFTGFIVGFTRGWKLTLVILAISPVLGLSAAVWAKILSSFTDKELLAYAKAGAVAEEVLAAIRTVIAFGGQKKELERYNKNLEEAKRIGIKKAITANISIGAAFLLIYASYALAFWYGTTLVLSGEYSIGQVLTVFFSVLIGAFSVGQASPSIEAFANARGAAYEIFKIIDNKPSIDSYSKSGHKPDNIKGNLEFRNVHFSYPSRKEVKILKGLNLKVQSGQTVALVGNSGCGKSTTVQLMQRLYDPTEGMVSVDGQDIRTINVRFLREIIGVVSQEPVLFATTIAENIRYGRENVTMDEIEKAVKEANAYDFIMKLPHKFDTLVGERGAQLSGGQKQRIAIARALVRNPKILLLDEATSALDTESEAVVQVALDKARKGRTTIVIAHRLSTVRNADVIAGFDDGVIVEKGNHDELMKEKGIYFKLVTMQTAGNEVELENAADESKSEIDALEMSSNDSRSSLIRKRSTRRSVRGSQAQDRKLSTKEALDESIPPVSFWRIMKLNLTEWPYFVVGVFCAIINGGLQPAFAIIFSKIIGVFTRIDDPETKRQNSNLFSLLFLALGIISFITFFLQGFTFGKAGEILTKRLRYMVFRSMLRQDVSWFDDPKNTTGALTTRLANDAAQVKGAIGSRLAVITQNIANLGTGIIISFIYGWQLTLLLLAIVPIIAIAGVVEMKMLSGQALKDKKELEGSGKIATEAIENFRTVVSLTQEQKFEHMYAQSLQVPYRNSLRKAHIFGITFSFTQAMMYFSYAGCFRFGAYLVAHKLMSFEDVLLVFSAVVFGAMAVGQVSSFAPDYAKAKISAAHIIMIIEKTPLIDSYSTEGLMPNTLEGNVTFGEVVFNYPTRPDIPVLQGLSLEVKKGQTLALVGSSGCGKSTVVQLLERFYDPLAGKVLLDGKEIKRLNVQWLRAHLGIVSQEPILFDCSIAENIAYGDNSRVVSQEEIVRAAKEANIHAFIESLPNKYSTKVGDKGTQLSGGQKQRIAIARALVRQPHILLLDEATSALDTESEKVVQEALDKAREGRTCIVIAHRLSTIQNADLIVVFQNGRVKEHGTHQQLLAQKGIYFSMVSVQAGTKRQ
Sequence of MRP3 (O15438 whole entry): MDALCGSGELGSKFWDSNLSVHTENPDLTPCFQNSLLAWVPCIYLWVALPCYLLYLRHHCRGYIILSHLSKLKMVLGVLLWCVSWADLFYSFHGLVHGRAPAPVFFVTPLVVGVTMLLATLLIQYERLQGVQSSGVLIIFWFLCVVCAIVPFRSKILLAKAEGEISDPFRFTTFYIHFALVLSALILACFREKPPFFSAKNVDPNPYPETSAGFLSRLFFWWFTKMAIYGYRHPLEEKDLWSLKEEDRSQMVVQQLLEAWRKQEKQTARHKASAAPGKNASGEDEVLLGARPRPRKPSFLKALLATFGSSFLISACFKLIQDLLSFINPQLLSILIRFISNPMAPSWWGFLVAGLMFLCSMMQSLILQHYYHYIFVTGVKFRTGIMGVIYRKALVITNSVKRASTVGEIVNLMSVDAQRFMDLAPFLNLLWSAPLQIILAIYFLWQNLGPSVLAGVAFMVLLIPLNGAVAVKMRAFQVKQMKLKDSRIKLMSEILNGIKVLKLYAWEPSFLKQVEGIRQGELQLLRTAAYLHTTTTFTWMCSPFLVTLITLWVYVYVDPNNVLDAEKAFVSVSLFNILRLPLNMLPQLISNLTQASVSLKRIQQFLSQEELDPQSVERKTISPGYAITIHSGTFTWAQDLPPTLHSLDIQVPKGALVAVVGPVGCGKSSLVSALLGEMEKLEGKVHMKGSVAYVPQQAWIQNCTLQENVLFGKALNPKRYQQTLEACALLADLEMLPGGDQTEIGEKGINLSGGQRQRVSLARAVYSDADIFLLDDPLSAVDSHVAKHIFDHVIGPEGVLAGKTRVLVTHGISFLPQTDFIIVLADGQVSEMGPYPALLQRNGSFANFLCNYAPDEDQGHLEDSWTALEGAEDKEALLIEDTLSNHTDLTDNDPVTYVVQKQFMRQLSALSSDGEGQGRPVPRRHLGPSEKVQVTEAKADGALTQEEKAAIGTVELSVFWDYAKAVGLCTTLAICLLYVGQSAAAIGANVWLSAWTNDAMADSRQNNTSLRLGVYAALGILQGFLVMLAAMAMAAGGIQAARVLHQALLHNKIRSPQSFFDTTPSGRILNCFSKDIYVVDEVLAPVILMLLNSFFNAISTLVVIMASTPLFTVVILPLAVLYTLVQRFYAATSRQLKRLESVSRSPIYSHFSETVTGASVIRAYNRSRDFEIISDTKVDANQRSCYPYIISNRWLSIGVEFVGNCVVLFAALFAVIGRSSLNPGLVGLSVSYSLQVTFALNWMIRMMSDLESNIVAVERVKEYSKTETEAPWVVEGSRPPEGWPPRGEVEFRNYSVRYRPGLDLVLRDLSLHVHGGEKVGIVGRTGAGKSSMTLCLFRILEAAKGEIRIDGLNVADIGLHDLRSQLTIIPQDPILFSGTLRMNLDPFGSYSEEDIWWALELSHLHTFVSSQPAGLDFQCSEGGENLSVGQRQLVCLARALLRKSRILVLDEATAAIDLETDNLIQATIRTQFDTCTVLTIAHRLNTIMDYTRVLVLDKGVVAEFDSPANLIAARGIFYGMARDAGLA

## COC(=O)N[C@H](C(=O)N1[C@H](c2nc3cc(-c4cc5ccc4CCc4ccc(c(-c6ccc7[nH]c([C@@H]8C[C@@H]9CCCC[C@@H]9N8C(=O)[C@@H](NC(=O)OC)C(C)C)nc7c6)c4)CC5)ccc3[nH]2)C[C@@H]2CCCC[C@@H]21)C(C)C [Odalasvir, methyl [(2,)-1-[(2S,3aS,7aS)-2-[6-[11-[2-[(2S,3aS,7aS)-1-[(2S)-2-[(methoxycarbonyl)amino]-3-methylbutanoyl]octahydro-1H-indol-2-yl]-1H-benzimidazol-6-yl]tricyclo[8.2.2.2^4,7]hexadeca-1(12),4,6,10,13,15-hexaen-5-yl]-1H-benzimidazol-2-yl]octahydro-1H-indol-1-yl]-3-methyl-1-oxobutan-2-yl]carbamate]
P-gp
  in vitro inhibition of P-gp: moderate inhibition
MRP2
  in vitro inhibition of MRP2: no inhibition
OATP1B1
  in vitro inhibition of OATP1B1: no inhibition
MRP3
  in vitro inhibition of MRP3: no inhibition
[1]; Compound (III) 400 mg, ODV 50 mg QD, SMV 100 mg QD
  observed exposures in Cohort 1 / group (i): higher than anticipated
[1]; in vivo
  decrease of ODV exposure on reducing ODV dosing from QD to QOD: proportionally
[2]; DDI study results
  effect of Compound (III) on SMV or ODV: no apparent effect
  increase of exposure caused by SMV: 1.6 ×
  increase of exposure, effect of the three Compounds: 1.5 ×
[2]; human in vivo study (Example 1)
  increase of exposure on co-administration of Compounds I, II and III: 1.5 times
[2]; human, in vivo
  effect of Compound (III) on bioavailability of SMV or ODV: does not alter
  increase of exposure of ODV by SMV: 1.6 fold
HCV genotype 3
  activity against genotype 3 in vitro: effective
